This note sets out measurements from PMC9569971, “New Oxazolo[5,4-d]pyrimidines as Potential Anticancer Agents: Their Design, Synthesis, and In Vitro Biological Activity Research” (International Journal of Molecular Sciences, 2022).

Molecules are shown by their SMILES. Entries after “also recorded” stand apart in the source; their conditions may differ. Marks after values point to notes of the source that are not given here.

Data set [1] deals with murine fibroblasts (L929). Kind of data set: MTT viability assay, L929. The format is cell-based. To be noted: tested 1–500 µM. On the procedure: (§1) When the confluence was greater than 70%, adherent cell lines were detached from the bottle surface with a TrypLE solution and then used in assays or reduced. The cells were collected into centrifuge tubes and centrifuged at 1000× g for 5 min at room temperature. The supernatant was removed to dry. The cell pellets were then resuspended in an appropriate medium. The cells were counted using a Bürker chamber and resuspended in 96-well plates to a cell density of 10,000 cells per well for MTT assay. For the rhodamine accumulation test and the detection of apoptosis assay, cells were seeded at a density of 30,000 per well. In the migration assay, cells were seeded at a density of 20,000 per well, and monolayer formation was awaited.
(§2) In this study, normal human dermal fibroblasts (NHDFs), breast cancer cells (MCF7), human lung adenocarcinoma cells (A549), murine fibroblasts (L929), colon adenocarcinoma cells (HT29), and colorectal adenocarcinoma cells (LoVo) were used. All cell lines were cultured in the recommended media. […] The human lung adenocarcinoma cell line A549 and breast cancer cell line MCF-7 were obtained from the ECACC. These cell lines were cultured in Eagle’s minimal essential medium (MEM). Murine fibroblast L929 (Sigma-Aldrich, Merck Group, Headquarters, Darmstadt, Germany; the European Collection of Authenticated Cell Cultures—ECACC) cells were grown in DMEM. […] All media were supplemented with 10% FBS and 100 µg/mL of penicillin–streptomycin.
(§3) All compounds were dissolved in DMSO and the reference drugs were dissolved in physiological saline to concentrations of 10 mM. Concentrations from 1 to 500 μM in the media recommended for the cell lines were prepared for the tests.
(§4) All of the synthesized derivatives were evaluated via the MTT assay. All cell lines were seeded into 96-well plates at a density of 10,000 cells per well. To allow the cells to adhere to the surface of the plates, they were incubated overnight before the application of the test compounds. […] The tests were performed for concentrations of 1, 5, 10, 25, 50, 100, 250, and 500 μM. The solutions of the test compounds were removed from the culture on the 96-well plates. […] The supernatant was then removed. The violet crystal was dissolved in isopropanol for 30 min by shaking. Absorbance was measured at 570 nm.
(§5) Biological assays were performed in three independent replicates, and each replicate used four samples. Three repetitions were made for the ELISA determinations. For the assessment of cytotoxicity, mathematical models were developed using the GraphPad PRISM software, based on which CC50 was determined. The values of CC50 were estimated based on nonlinear regression using the dependence of the biological effect on the molar concentrations of the compounds (four-parameter logistic model with Hill slope).
For orientation: Formazan colour is commonly taken as a measure of viable cells.

In data set [2] the test system is normal human dermal fibroblasts (NHDF). Kind of data set: MTT viability assay, NHDF. The format is cell-based. The settings on record: tested 1–500 µM. As to the method: as §1, §2, §3, §4, §5
Data set [3] relates to lung adenocarcinoma (A549). Kind of data set: MTT viability assay, A549. The format is cell-based, human. On the procedure:
as §1, §2, §3, §4, §5

Data set [4] has as its system breast adenocarcinoma (MCF7). Briefly: MTT viability assay, MCF7. The format is cell-based, human. To be noted: MCF7, MTT, tested 1–500 µM. As to the method: as §1, §2, §3, §4, §5
For data set [5], the system named is primary colon adenocarcinoma (HT29). Briefly: MTT viability assay, HT29. The format is cell-based, human. As to the method: as §1, §2, §3, §4, §5
Data set [6] deals with T1, P-glycoprotein (P-gp) in HT29 cells (Homo sapiens, UniProt P08183).
T1 construct: evaluate their effects on the efflux activity of P-gp in HT29 cells; host or cells: HT29 colon adenocarcinoma cells
Kind of data set: Rhodamine-123 (Rh-123) accumulation assay. The format is cell-based. To be noted: HT29, 24 h, over all tested concentrations (1–20 μM). On the procedure: as §1
The level of significance was set at p < 0.05.

Data set [7] has as its system HT29 primary colon adenocarcinoma cells. Briefly: Detection of apoptosis (Annexin V FITC / propidium iodide). The format is cell-based, human. More on the design: unit not given here. To be noted: 24 h. In a few lines: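 After 24 h growth at 30,000 cells/well, HT29 cells were treated with compound at 1, 2, 5 and 10 µM for 24 h. They were then stained with Annexin V-FITC/propidium iodide in PBS with Mg²⁺/Ca²⁺ for 20 min at 37 °C.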

T1 sequence (P08183 whole entry): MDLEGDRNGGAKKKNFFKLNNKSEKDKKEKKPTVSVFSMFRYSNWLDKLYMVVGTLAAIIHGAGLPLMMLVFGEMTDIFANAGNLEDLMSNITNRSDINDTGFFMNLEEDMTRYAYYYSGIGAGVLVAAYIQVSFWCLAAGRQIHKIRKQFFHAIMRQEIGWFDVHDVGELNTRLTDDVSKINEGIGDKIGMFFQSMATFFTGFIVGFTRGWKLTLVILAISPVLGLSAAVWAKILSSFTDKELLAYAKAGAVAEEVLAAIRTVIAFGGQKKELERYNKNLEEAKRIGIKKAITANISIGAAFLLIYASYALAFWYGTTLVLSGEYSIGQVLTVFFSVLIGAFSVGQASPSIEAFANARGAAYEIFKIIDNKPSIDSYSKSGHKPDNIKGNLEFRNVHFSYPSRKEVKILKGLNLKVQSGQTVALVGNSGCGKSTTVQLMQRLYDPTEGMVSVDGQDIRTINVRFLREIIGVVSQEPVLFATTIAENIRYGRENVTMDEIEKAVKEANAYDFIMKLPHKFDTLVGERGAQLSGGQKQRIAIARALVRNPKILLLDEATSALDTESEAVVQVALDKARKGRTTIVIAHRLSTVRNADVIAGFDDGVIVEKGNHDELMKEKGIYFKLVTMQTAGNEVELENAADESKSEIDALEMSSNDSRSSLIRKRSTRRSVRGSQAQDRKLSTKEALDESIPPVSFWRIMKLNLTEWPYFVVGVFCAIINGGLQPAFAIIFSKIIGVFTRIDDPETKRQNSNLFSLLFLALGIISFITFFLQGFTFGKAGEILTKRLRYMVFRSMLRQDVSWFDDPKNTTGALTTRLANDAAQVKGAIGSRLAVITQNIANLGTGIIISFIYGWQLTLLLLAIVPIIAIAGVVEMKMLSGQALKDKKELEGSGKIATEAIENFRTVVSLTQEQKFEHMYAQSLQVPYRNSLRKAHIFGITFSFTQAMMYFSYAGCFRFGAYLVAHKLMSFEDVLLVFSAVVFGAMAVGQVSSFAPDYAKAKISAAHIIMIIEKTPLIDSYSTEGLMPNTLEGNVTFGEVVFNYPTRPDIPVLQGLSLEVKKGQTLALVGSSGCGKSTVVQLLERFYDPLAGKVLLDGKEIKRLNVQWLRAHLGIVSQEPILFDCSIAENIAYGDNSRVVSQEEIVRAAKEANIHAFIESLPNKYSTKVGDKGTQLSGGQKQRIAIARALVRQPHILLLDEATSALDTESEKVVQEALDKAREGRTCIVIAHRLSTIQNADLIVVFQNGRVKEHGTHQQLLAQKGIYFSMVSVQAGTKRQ

On to `CNc1ncnc2oc(-c3c(C)noc3N)nc12` [Compound 3a, 2-(5-Amino-3-methylisoxazol-4-yl)-7-N-methylaminooxazolo[5,4-d]pyrimidine], for which the “CC50 ± SD” value in data set [1] is given as “no toxic activity; also recorded: Non-toxic ^b”; in data set [2], “Non-toxic”; in data set [4] it was “no cytotoxic activity”. The “SI (selectivity index)” value is >>1 ^c in data set [3] (CC50 NHDF / CC50 A549) and >>1 in data set [5] (CC50 NHDF / CC50 HT29). The cytotoxic concentration (CC50) (as a rule, the concentration at which the toxic effect on the cells reaches its halfway point) in data set [3] (Homo sapiens, A549, MTT, tested 1–500 µM) is 245 ± 19 µM; in data set [5] (Homo sapiens, HT-29, HT29, MTT, tested 1–500 µM), 159 ± 12.1 µM. The “intracellular increase in rhodamine accumulation” value in data set [6] is “no intracellular increase”. The apoptosis mean in data set [7] (1 μM) is listed as 6.89; in data set [7] (2 μM), 5.35; in data set [7] (5 μM), 9.38; in data set [7] (10 μM), 10.99. For the same compound, the late apoptosis mean came out at 11.16 in data set [7] (1 μM), 11.15 in data set [7] (2 μM), 11.51 in data set [7] (5 μM) and 12.07 in data set [7] (10 μM). Besides, the necrosis mean in data set [7] (1 μM) was 4.43; in data set [7] (2 μM) it was 9.07; in data set [7] (5 μM), 2.76; in data set [7] (10 μM) it was 5.55. Besides, the “percent live (viable) cells” value in data set [7] (1 μM) is 77.51; in data set [7] (2 μM), 74.42; in data set [7] (5 μM), 76.34; in data set [7] (10 μM) it was 71.40.
